Laboratory results reported in patent US10517889B2, “Modulators of SMAD7 expression” (Ionis Pharmaceuticals, Inc., priority 2017, dated 2019).
Strand notation (5' to 3'): a small letter for the sugar, then the base; units joined by * are phosphorothioate-linked, units joined directly phosphodiester-linked; [ ] holds rarer units or linkages, { } end groups; capitals alone tell only the bases. k = constrained ethyl (cEt); [5mC] = 5-methylcytosine; d = 2'-deoxy (DNA)

System: human SMAD7 mRNA
Test: Antisense inhibition of human SMAD7 mRNA expression in Hep3B cells by 3-10-3 cEt gapmers, 10,000 nM, electroporation (Example 2)
Assay type: cell-based
Details: Hep3B cells, 10,000 nM antisense oligonucleotide, electroporation, approximately 24 hours, RT-PCR primer probe set RTS5062, relative to untreated control cells
Description: Antisense oligonucleotides were designed to target human SMAD7 mRNA and were tested for their effects on SMAD7 mRNA expression in vitro. The antisense oligonucleotides were tested in a series of experiments that had similar culture conditions, as described below. ION 771576, described in the studies above and which is a 5-10-5 MOE gapmer, was also included in these assays. Cultured Hep3B cells at a density of 20,000 cells per well were transfected using electroporation with 10,000 nM antisense oligonucleotide. After a treatment period of approximately 24 hours, RNA was isolated from the cells and SMAD7 mRNA levels were measured by quantitative real-time PCR. Primer probe set RTS5062 was used to measure human SMAD7 mRNA levels. SMAD7 mRNA levels were adjusted according to total RNA content, as measured by RIBOGREEN®. Results are presented as percent inhibition of SMAD7 mRNA expression, relative to untreated control cells.
The newly designed chimeric antisense oligonucleotides in the Tables below were designed as 3-10-3 cEt gapmers. The gapmers are 16 nucleosides in length, wherein the central gap segment comprises often 2′-deoxynucleosides and is flanked by wing segments on the 5′ direction and the 3′ direction comprising three nucleosides each. Each nucleoside in the 5′ wing segment and each nucleoside in the 3′ wing segment has a cEt sugar modification. The internucleoside linkages throughout each gapmer are phosphorothioate (P═S) linkages. All cytosine residues throughout each gapmer are 5-methylcytosines.
“Start site” indicates the 5′-most nucleoside to which the gapmer is targeted in the human gene sequence. “Stop site” indicates the 3′-most nucleoside to which the gapmer is targeted human gene sequence. […] Some of the oligonucleotides presented were complementary to SMAD7 mRNA sequences RefSeqNo. NM_001190821.1 (designated herein as SEQ ID NO: 3) or RefSeqNo. NM_001190822.1 (designated herein as SEQ ID NO: 4), and are presented in a separate table shown below.

Substance	% Inhibition [%]
799951 (antisense kT*k[5mC]*kT*dT*dA*dA*dA*dA*dA*dA*dA*dG*dG*kG*kA*kG) [compound 799951]	0
800078 (antisense kA*k[5mC]*k[5mC]*dT*dT*dA*dA*d[5mC]*dA*dA*dA*dG*d[5mC]*kT*kT*k[5mC]) [compound 800078]	51
798909 (kA*k[5mC]*kG*d[5mC]*dG*dG*d[5mC]*dT*dA*d[5mC]*d[5mC]*dG*dG*k[5mC]*kT*kG; antisense) [compound 798909]	42
799977 (kG*kG*kA*d[5mC]*dA*dT*d[5mC]*dT*d[5mC]*dA*dA*dA*dG*kG*kT*kT; antisense) [compound 799977]	36

Same assay, conditions: Hep3B cells, electroporation with 10,000 nM antisense oligonucleotide, approximately 24 hours, RTS5062, percent inhibition of SMAD7 mRNA relative to untreated control cells

Substance	% Inhibition [%]
799848 (kA*kG*k[5mC]*d[5mC]*dG*dA*dT*d[5mC]*dA*d[5mC]*dA*dA*dA*kA*kG*kG; antisense) [compound 799848]	59
799662 (antisense k[5mC]*kG*kT*dG*dA*dG*d[5mC]*dA*d[5mC]*dT*dT*d[5mC]*dT*kG*kT*k[5mC]) [compound 799662]	55
799291 (antisense kG*k[5mC]*kT*dG*dA*dT*dT*dA*dT*dT*dA*dA*dT*kG*kG*kT) [compound 799291]	0
799785 (k[5mC]*kT*k[5mC]*d[5mC]*dA*dG*dG*dT*dA*dG*dA*dG*dG*k[5mC]*kA*kA; antisense) [compound 799785]	0
799645 (k[5mC]*kA*kA*dA*dG*dA*dT*dG*dA*dT*dA*dG*d[5mC]*kT*kT*k[5mC]; antisense) [compound 799645]	45
799746 (antisense kA*kA*kT*dG*dG*dG*dA*dA*dA*dT*dA*dA*dG*kG*k[5mC]*kG) [compound 799746]	59
799683 (antisense k[5mC]*kT*kG*d[5mC]*dA*dG*dA*dA*dG*dA*dG*dG*d[5mC]*kG*kG*kG) [compound 799683]	32
799688 (antisense k[5mC]*kA*k[5mC]*d[5mC]*dA*d[5mC]*d[5mC]*d[5mC]*dA*dA*dA*dG*d[5mC]*k[5mC]*kT*kG) [compound 799688]	50
799788 (k[5mC]*kA*k[5mC]*dA*dA*d[5mC]*d[5mC]*dA*dA*dA*dG*d[5mC]*dA*kG*kA*kA; antisense) [compound 799788]	59

Same assay, conditions: Hep3B cells, electroporation with 10,000 nM antisense oligonucleotide, approximately 24 hours, SMAD7 mRNA by RT-PCR (RTS5062), relative to untreated control cells

Substance	% Inhibition [%]
830113 (kA*kG*k[5mC]*d[5mC]*d[5mC]*d[5mC]*dA*dT*dT*d[5mC]*dA*dT*dT*kA*kA*kG; antisense) [compound 830113]	36
830046 (kT*k[5mC]*k[5mC]*dG*dA*dT*dT*dG*dG*d[5mC]*dA*dG*dG*kT*kT*kA; antisense) [compound 830046]	60
830107 (kT*k[5mC]*kA*dT*dT*dA*dA*dG*d[5mC]*d[5mC]*d[5mC]*dG*d[5mC]*kT*k[5mC]*kT; antisense) [compound 830107]	50
798783 (k[5mC]*kG*kG*d[5mC]*dT*dA*dA*dG*dG*dT*dG*dA*dT*kG*kG*kG; antisense) [compound 798783]	45
830026 (antisense kT*kT*kT*dT*dG*dT*dA*dA*dA*dT*d[5mC]*dG*dA*kA*kA*kG) [compound 830026]	0
830172 (antisense k[5mC]*kT*kG*d[5mC]*dT*d[5mC]*dT*dG*dT*dT*dT*dG*dG*kA*k[5mC]*kA) [compound 830172]	27
799925 (antisense k[5mC]*k[5mC]*kA*dA*dG*d[5mC]*d[5mC]*dT*dA*d[5mC]*dA*dT*dA*kT*kT*kT) [compound 799925]	10
798752 (k[5mC]*kG*kG*d[5mC]*d[5mC]*dG*dG*dG*d[5mC]*dA*dG*d[5mC]*dA*kG*kG*kA; antisense) [compound 798752]	0
790465 (kA*kA*kG*dG*dA*dG*d[5mC]*dG*dA*dA*d[5mC]*dA*dT*kG*kA*k[5mC]; antisense) [compound 790465]	54
799427 (antisense kG*kT*k[5mC]*d[5mC]*dA*dG*dG*d[5mC]*d[5mC]*dT*d[5mC]*d[5mC]*d[5mC]*kA*kG*kA) [compound 799427]	20

Same assay, conditions: Hep3B cells, electroporation with 10,000 nM antisense oligonucleotide, approximately 24 hours, primer probe set RTS5062, relative to untreated control cells

Substance	% inhibition of SMAD7 mRNA expression [%]	% Inhibition [%]
799345 (k[5mC]*kG*kA*dG*dA*dA*dG*d[5mC]*d[5mC]*d[5mC]*dA*dG*dG*k[5mC]*k[5mC]*k[5mC]; antisense) [compound 799345]	20	
799425 (antisense kA*kT*kT*dA*dT*dA*dG*d[5mC]*dA*dA*dA*dA*dT*kG*kG*kA) [compound 799425]	23	
799055 (antisense kG*k[5mC]*kT*d[5mC]*dA*dG*dA*dA*dG*d[5mC]*d[5mC]*dT*dG*kT*kG*kG) [compound 799055]		19
790631 (kG*kT*kT*dT*dA*dA*dT*dG*dG*dA*dA*d[5mC]*dA*kT*kA*kA; antisense) [compound 790631]		0
798747 (antisense k[5mC]*kG*kG*d[5mC]*d[5mC]*dT*dG*dG*dA*dG*d[5mC]*dA*dG*k[5mC]*kA*kG) [compound 798747]	14	
798989 (antisense kA*kA*kG*dT*dG*dA*dA*dA*dT*dG*dA*dT*dG*kA*k[5mC]*k[5mC]) [compound 798989]	8	
799120 (antisense kA*kA*kT*dA*dG*d[5mC]*dA*dG*dA*dG*d[5mC]*dT*dT*kA*kA*k[5mC]) [compound 799120]		45
798975 (antisense kT*k[5mC]*k[5mC]*d[5mC]*d[5mC]*dT*d[5mC]*dT*dT*d[5mC]*d[5mC]*dT*dA*kT*k[5mC]*kA) [compound 798975]		47
799405 (antisense k[5mC]*kT*kG*dG*dG*dA*dA*d[5mC]*dA*dT*dT*dT*dA*k[5mC]*k[5mC]*k[5mC]) [compound 799405]	28	
798978 (antisense kT*kT*kT*dG*dG*dT*dG*dG*dT*dG*d[5mC]*dT*dT*kG*kG*kA) [compound 798978]		25

Same assay, conditions: Hep3B cells, electroporation, 10,000 nM antisense oligonucleotide, approximately 24 hours, RTS5062, relative to untreated control cells

Substance	% inhibition of SMAD7 mRNA expression [%]
799680 (antisense kG*kA*kG*dT*dT*d[5mC]*dT*dA*dG*dG*d[5mC]*d[5mC]*dG*kT*k[5mC]*kA) [compound 799680]	33
799270 (antisense kA*kG*kT*d[5mC]*dA*dG*dG*d[5mC]*dT*d[5mC]*dA*dA*dT*kG*kA*kG) [compound 799270]	16
799581 (k[5mC]*kA*kA*dA*d[5mC]*d[5mC]*dT*dT*d[5mC]*d[5mC]*dG*dA*dA*kA*kG*kG; antisense) [compound 799581]	0

Same assay, conditions: SMAD7 mRNA, Hep3B cells, 10,000 nM antisense oligonucleotide, electroporation, approximately 24 hours, primer probe set RTS5062, relative to untreated control cells

Substance	% Inhibition [%]
829747 (antisense kT*k[5mC]*kG*d[5mC]*d[5mC]*dG*d[5mC]*d[5mC]*dG*dG*dG*d[5mC]*dG*k[5mC]*kA*k[5mC]) [compound 829747]	16
790754 (k[5mC]*kT*kA*dA*dG*d[5mC]*dT*dA*d[5mC]*dT*dT*dG*dG*kT*kT*kT; antisense) [compound 790754]	38
800786 (antisense kG*k[5mC]*kA*d[5mC]*d[5mC]*dA*dG*dT*dG*dT*dG*dA*d[5mC]*k[5mC]*kG*kA) [compound 800786]	0
829771 (antisense kG*k[5mC]*kA*dG*dT*d[5mC]*d[5mC]*dA*dG*dG*d[5mC]*dG*dG*k[5mC]*k[5mC]*kG) [compound 829771]	22
772540 (antisense kA*kG*kG*d[5mC]*dG*dA*dG*dG*dA*dG*dA*dA*dA*kA*kG*kT) [compound 772540]	10
772635 (kA*kA*kG*d[5mC]*dT*dG*dA*dT*d[5mC]*dT*dG*d[5mC]*dA*k[5mC]*kG*kG; antisense) [compound 772635]	43

Same assay, conditions: SMAD7 mRNA, Hep3B cells, electroporation with 10,000 nM antisense oligonucleotide, approximately 24 hours, primer probe set RTS5062, relative to untreated control cells

Substance	% Inhibition [%]
829972 (k[5mC]*kT*k[5mC]*dG*dG*d[5mC]*d[5mC]*dA*d[5mC]*dA*d[5mC]*dA*d[5mC]*k[5mC]*kT*k[5mC]; antisense) [compound 829972]	22
829897 (antisense kG*k[5mC]*kG*dG*dG*dT*dG*dT*dA*dG*d[5mC]*dA*d[5mC]*kT*kG*kG) [compound 829897]	40
829850 (antisense kT*kT*kG*dT*dT*dG*dT*d[5mC]*d[5mC]*dG*dA*dA*dT*kT*kG*kA) [compound 829850]	36
